# Results from the METLIN SMRT retention time set (Domingo-Almenara et al. 2019).
# Experiment: gradient 5% acetonitrile 3 min, to 50% in 2 min, to 85% in 15 min, held 3 min, 100 µL/min
# Conditions: column: Zorbax Extend-C18 2.1 x 50 mm; eluents: water / acetonitrile, 0.1% formic acid
# Method in brief: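 In both positive and negative ionization mode, a quadrupole time-of-flight mass spectrometer coupled to HPLC analyzed pure standards run in mixtures of ~100 molecules. The Zorbax Extend-C18 column (2.1 × 50 mm, 1.8 μm) was operated at 100 μL/min with water and acetonitrile, each containing 0.1% formic acid. The dead volume was 40 μL and the dwell volume 900 μL. Retention time came from adduct peaks that were computationally picked and individually inspected by hand.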
row,SMILES,RP-LC retention time
1,Cc1ccccc1-c1noc(CCc2nnc3ccc(N4CCN(c5ccc(F)cc5)CC4)nn23)n1,1110 s
2,CN1CCN(CCNC(=O)C2CN(S(=O)(=O)c3ccccc3)CC23CCCCC3)CC1 (stereo not drawn),573 s
3,Cc1cccc(-c2nnc(Cc3nc(-c4cccs4)no3)o2)c1,979 s
4,CC(C)c1noc(-c2ccnc(-n3cnc(C(=O)NC4CCCCC4)c3)c2)n1,1020 s
5,NC(=O)C1CCN(C(=O)CN2CCC(Cc3ccccc3)CC2)CC1,591 s
6,Cc1ccnc(N2CCC(C(=O)NCCCN3CCCCCC3)CC2)n1,556 s
7,Cc1cc(C)n(CCN2CCN(C(=O)Cc3cccs3)CC2)n1,548 s
8,O=c1c(NCCc2ccccc2)nc2ccncc2n1Cc1ccccc1,742 s
9,Cc1ccc(-c2nc(N3CC(C)OC(C)C3)c3ccccc3n2)cc1 (stereo not drawn),763 s
10,O=C(NCCN1CCOCC1)c1nnc(-c2ccc(S(=O)(=O)N3CCOCC3)cc2)o1,578 s
11,CC(C)N1CCCC(Cn2cc(COc3ccc4c(c3)CCC4)nn2)C1 (stereo not drawn),667 s
12,CCc1nc(-c2ccc(OC3CCN(C(=O)c4sc(C)nc4C)C3)cc2)no1 (stereo not drawn),696 s
13,COc1ccc(-c2nc(N3CCCC3)c3ccccc3n2)cc1,742 s
14,Cc1ccc(-n2cc(C3=CCN(CC(=O)N4CCN(c5ccccn5)CC4)CC3)cn2)cc1C,596 s
15,CCCCNC(=O)C1CCCN(C(=O)Nc2ccc(NC(=O)NC3CCCC3)cc2)C1 (stereo not drawn),728 s
16,COc1ccc(NC(=O)N2CCN(Cc3nc4cc(Cl)ccc4o3)CC2)cc1OC,686 s
17,Clc1cccc(-c2noc(-c3nc(-c4ccncc4)no3)n2)c1,1130 s
18,CCCC(=O)N1CCc2cn(C)c3cccc(c23)C1,832 s
19,COc1ccc(C(C)NC(=O)c2cn3nc(Cl)ccc3n2)cc1OC (stereo not drawn),755 s
20,CNC(=O)c1ccc(-c2nc3cc(NS(=O)(=O)c4cc(F)ccc4F)ccc3n2C)cc1,637 s
21,CCCN(CC1CCOC1)C(=O)Nc1ccc2c(c1)OCCO2 (stereo not drawn),732 s
22,Cc1csc(-c2cc(S(=O)(=O)NC3CCCCC3)cn2CC(=O)N2CCCC2)n1,927 s

row,SMILES,RP-LC retention time
1,CCc1ccccc1NS(=O)(=O)c1ccc(CN2C(=O)c3ccccc3C2=O)cc1,954 s
2,Clc1cc2c(c(CN3CCN(c4ccccc4)CC3)c1)OCOC2,584 s
3,O=C1CN(c2ncnc3[nH]ncc23)CC(=O)N1CCc1ccccc1,662 s
4,COc1ccc(OC)c(S(=O)(=O)N2CCCOCCNC(=O)[C@@H]3CCC[C@@H]32)c1,720 s
5,Fc1ccc(C2Cn3cnc(-c4nc(-c5cccs5)no4)c3CO2)cc1 (stereo not drawn),1010 s
6,Cc1cc(C(=O)OCc2cc(-c3ccc4c(c3)OCCO4)on2)c(C)o1,1070 s
7,CCN1C(=O)CCc2cc(NC(=O)Cc3ccc(F)cc3)ccc21,780 s
8,CC1(C)CC(=O)c2cn(-c3ccc(Cl)cc3)c(=O)c(C(=O)O)c2C1,907 s
9,Cc1cccn2c(Nc3ccc4c(c3)OCCO4)c(-c3ccc(N(C)C)cc3)nc12,735 s
10,O=C1NC2(CCN(C(=O)Cc3cccc(F)c3)CC2)Nc2cc(Cl)ccc21,808 s
11,Cc1ccc(Oc2ccc(NS(=O)(=O)c3ccc(F)cc3F)cc2)nn1,720 s
12,Cc1cc(N2CCCC2)n2nc(CN(C)Cc3ccccc3)nc2n1,593 s
13,O=C(Nc1ccc2c(c1)OCO2)N1CCC(N2CCN(Cc3ccccc3)C(=O)C2=O)CC1,706 s
14,O=C(CCNc1c(-c2ccc(F)cc2)nc2cnccn12)Nc1ccc2c(c1)OCCO2,704 s
15,CCCn1cc(C(=O)NCCN(C)C)c(S(=O)(=O)N2CCN(c3ccc(Cl)cc3)CC2)n1,730 s
16,Cc1ccc(NC(=O)Cn2cccc2-c2nnc(C3CC3)o2)c(Cl)c1,930 s
17,c1ccc(-c2nc(-c3cccc(-c4ccn[nH]4)c3)no2)cc1,966 s
18,CCN(CC)CCSc1ccc(C(=O)N2CCN(c3ncccn3)CC2)cn1,600 s
19,Cc1ccc(S(=O)(=O)n2nc(-c3ccc(C)c(C)c3)nc2N)cc1,1000 s
20,CCCN1CCN(c2cc(C(=O)O)c3cc(NS(=O)(=O)c4ccccc4Cl)ccc3n2)CC1,595 s
21,CCN1CCN(c2ncc(N3CCC(C(=O)NCCN4CCCCC4C)CC3)cn2)CC1 (stereo not drawn),537 s
22,Cc1ccc(Nc2nc(C(=O)NC3CCCCC3)nc3ccccc23)cc1,906 s

row,SMILES,RP-LC retention time
1,Cc1noc(C)c1CCNC(=O)Cn1c2ccccc2c2cnn(C)c(=O)c21,706 s
2,CC(C)Oc1ccc(CNC(=O)c2cc(-c3ccncc3)cn2C)cc1,640 s
3,O=C(NCCC1CCN(S(=O)(=O)c2ccc(F)cc2)CC1)Nc1ccc(F)cc1F,935 s
4,Cc1nc(-c2cccs2)c(CC(=O)N2CCN(c3ccccn3)CC2)s1,607 s
5,Cc1cccc(S(=O)(=O)N2CCN(c3cnn4c(C5CC5)nnc4c3)CC2)c1,752 s
6,CN1C(=O)NC(c2ccc(Cl)cc2)C2=C1CN(c1ccc(C(=O)O)cc1)C2=O (stereo not drawn),691 s
7,Cc1cc(-c2nnc(-c3ccco3)o2)c(C)n1CC(=O)NCc1ccccc1,826 s
8,Cc1ccc(CNC(=O)C2(C)CCCN(C(=O)Nc3cccc(C)c3C)C2)cc1 (stereo not drawn),978 s
9,Cc1ccc(-c2cc3c4nnc(CCC(=O)NCc5ccccc5C(F)(F)F)n4ccn3n2)cc1C,952 s
10,COc1ccc(-c2noc(-c3nc(C(C)C)no3)n2)cc1,1120 s
11,CC(=O)c1cccc(NC(=O)c2nc3nc(C)cc(C(F)F)n3n2)c1,734 s
12,CC(Oc1ccccc1)C(=O)N1CCCn2nc(-c3cccs3)cc2C1 (stereo not drawn),844 s
13,CCNC(=O)c1cc2c(n(-c3ccc(C(C)C)cc3)c1=O)CCCC2=O,905 s
14,Oc1ccc(Cl)cc1C1CC(c2ccc(Cl)cc2)=NC2(CCN(Cc3ccccc3)CC2)N1 (stereo not drawn),791 s
15,COc1ccc(NC(=O)C2CN(S(=O)(=O)c3cccnc3)CC23CCCCC3)cc1F (stereo not drawn),900 s
16,COC(=O)c1cnc2nc(-c3ccccc3Cl)nn2c1C,860 s
17,CCC(CC)N1CCC(F)(c2nc(-c3ccccc3)no2)CC1,704 s
18,Cc1ccc(NC(=O)N2CCC(N3CCN(Cc4ccccn4)C(=O)C3=O)CC2)c(Cl)c1,876 s
19,CCOC(=O)c1nc(NCC2CCN(Cc3ccccc3F)CC2)c2ccccc2n1,598 s
20,CCc1noc(NC(C)=O)c1-c1ccc(C)c(S(=O)(=O)N2CCN(c3ccccn3)CC2)c1,665 s
21,COc1cc(Nc2ncc(C(=O)O)c(C(C)C)n2)cc(OC)c1,892 s
22,CN(C(=O)CC(=O)Nc1ccc2nc3n(c(=O)c2c1)CCCCC3)c1cccc(C(F)(F)F)c1,771 s

row,SMILES,RP-LC retention time
1,Cc1ccccc1OCC(=O)NC[C@@]12CCC[C@H]1N(C)C(=O)CC2,755 s
2,CCn1c(=O)sc2cc(S(=O)(=O)N3CCC(C(=O)NC4CCCCC4)CC3)ccc21,876 s
3,Cc1nc(-c2cnccn2)n(CC(=O)Nc2ccc(F)cc2)c(=O)c1C,709 s
4,Cc1oc2ncnc(N3CCOCC3)c2c1C(=O)N1CCCc2ccccc21,790 s
5,COc1ccc(NS(=O)(=O)c2ccc(N3C(=O)CCC3=O)cc2)c(OC)c1,703 s
6,COc1cc(OC)c(NC(=O)N2CCC(n3cnc4cccnc43)CC2)cc1Cl,670 s
7,COc1ccc(OCc2nc(-c3cccc(-c4csc(C5CC5)n4)c3)no2)cc1,1300 s
8,CC1CCN(S(=O)(=O)c2ccc3nn(Cc4cccc(F)c4)c(=O)n3c2)CC1,781 s
9,CC(=O)Nc1ccc(C2(C(=O)NCc3ccccc3C)CCC2)cc1,791 s
10,COc1cccc(Cn2nc3c(S(=O)(=O)N4CCCC4)cccn3c2=O)c1,814 s
11,Cc1ncsc1C1N(C2CCN(C(=O)C3CC3)CC2)C(=O)C12CCCC2 (stereo not drawn),696 s
12,CN1C(=O)c2ccccc2Oc2ccc(C(=O)NCc3ccc(Cl)cc3)cc21,957 s
13,O=C(c1nnn(-c2ccccc2Cl)c1-c1ccncc1)N1CCCC1,716 s
14,CC(C)Cn1cc(S(=O)(=O)Nc2cccc(Cl)c2)c2cccnc21,912 s
15,CCn1ncc(NC(=O)c2ccccc2F)c(N2CCOCC2)c1=O,842 s
16,COc1cccc(-c2cc(N3CCN(C(=O)Nc4cc(OC)ccc4OC)CC3)ncn2)c1,688 s
17,COc1ccc(Br)cc1S(=O)(=O)NC(=O)/C=C/c1ccccc1Cc1ccc2ccccc2c1,1280 s
18,COc1ccc(NC(=O)N2CC(N(C(=O)NC(C)C)C3CCOCC3)C2)cc1OC,598 s
19,Cc1ccc(C)c(NC(=O)Nc2ccc(-c3cn4ccc(C)nc4n3)cc2)c1,690 s
20,COc1ccc(-c2noc(Cc3nnc(-c4cc(F)cc(F)c4)o3)n2)cc1OC,924 s
21,COc1ccc(C2Cn3cnc(-c4nc(-c5ccc6c(c5)OCO6)no4)c3CO2)cc1 (stereo not drawn),1000 s
22,CC(C)NC(=O)C1CC(=O)N(c2ccc3c(c2)CCN3C(=O)C2CC2)C1 (stereo not drawn),657 s
